Consider 14 compounds from ChEMBL document CHEMBL1833797, “Microwave assisted synthesis and antimicrobial evaluation of new fused pyran derivatives bearing 2-morpholinoquinoline nucleus” (2011).

Values after ≈ are worked out from the molar mass of the structure shown.

Test [1] has as its system Streptococcus pneumoniae. Description: Antimicrobial activity against Streptococcus pneumoniae MTCC 1936 for 24 hrs by microdilution method. Format: functional. Particulars: MTCC 1936, 24 h. On the technique in general: Dilution methods test growth across graded concentrations, often in twofold steps.
For test [2], the system named is Clostridium tetani. Description: Antimicrobial activity against Clostridium tetani MTCC 449 for 24 hrs by microdilution method. Format: functional. Particulars: MTCC 449, 24 h.
Test [3] relates to Bacillus subtilis. Nature of the test: Antimicrobial activity against Bacillus subtilis MTCC 441 for 24 hrs by microdilution method. Particulars: MTCC 441, 24 h. It is filed as functional.
Test [4] relates to Salmonella typhi. Description: Antimicrobial activity against Salmonella typhi MTCC 98 for 24 hrs by microdilution method. Format: functional, Salmonella enterica subsp. enterica serovar Typhi. Particulars: Salmonella enterica, MTCC 98, 24 h.
The test system of test [5] is Vibrio cholerae. Description: Antimicrobial activity against Vibrio cholerae MTCC 3906 for 24 hrs by microdilution method. Format: functional. Particulars: MTCC 3906, 24 h.
Test [6] relates to Escherichia coli. Description: Antimicrobial activity against Escherichia coli MTCC 443 for 24 hrs by microdilution method. It is filed as functional. To be noted: MTCC 443, 24 h.
Test [7] concerns Aspergillus fumigatus. Nature of the test: Antifungal activity against Aspergillus fumigatus MTCC 3008 for 48 hrs by microdilution method. It is filed as functional.
For test [8], the system named is Candida albicans. Nature of the test: Antifungal activity against Candida albicans MTCC 227 for 48 hrs by microdilution method. Format: functional.

For orientation: MIC means the lowest concentration found to suppress growth. Low values mean greater potency, high ones weaker potency. Take `CC1(C)S[C@@H]2[C@H](NC(=O)[C@H](N)c3ccccc3)C(=O)N2[C@H]1C(=O)O` [AMPICILLIN]: the MIC amounted to 100 µg/mL (≈ 286 µM) in test [1]; 250 µg/mL (≈ 715 µM) in test [2]; 250 µg/mL (≈ 715 µM) in test [3]; 100 µg/mL (≈ 286 µM) in test [4]; 100 µg/mL (≈ 286 µM) in test [5]; 100 µg/mL (≈ 286 µM) in test [6].
Take `COc1ccc2nc(N3CCOCC3)c(C3C(C#N)=C(N)Oc4c3ccc3ccccc43)cc2c1` (centres undefined): the MIC in test [1] is 250 µg/mL (≈ 538 µM); in test [2], 250 µg/mL (≈ 538 µM); in test [3] it was 250 µg/mL (≈ 538 µM); in test [4] it was 100 µg/mL (≈ 215 µM); in test [5], 200 µg/mL (≈ 431 µM); in test [6] it was 200 µg/mL (≈ 431 µM). In addition, the MIC stood at 1000 µg/mL (≈ 2150 µM) in test [7] (MTCC 3008, 48 h) and 100 µg/mL (≈ 215 µM) in test [8] (MTCC 227, 48 h).
Consider `N#CC1=C(N)OC2=C(C(=O)c3ccccc3C2=O)C1c1cc2ccccc2nc1N1CCOCC1` (centres undefined), for which the MIC in test [1] came out at 500 µg/mL (≈ 1080 µM); in test [2] it was 500 µg/mL (≈ 1080 µM); in test [3], 500 µg/mL (≈ 1080 µM); in test [4] it was 12.5 µg/mL (≈ 26.9 µM); in test [5] it was 500 µg/mL (≈ 1080 µM); in test [6] it was 200 µg/mL (≈ 431 µM). The MIC was over 1000 µg/mL in test [7] (MTCC 3008, 48 h) and 100 µg/mL (≈ 215 µM) in test [8] (MTCC 227, 48 h).
On to NYSTATIN, for which the MIC in test [7] and in test [8] was 100 µg/mL throughout.
`CC1(C)CC(=O)C2=C(C1)OC(N)=C(C#N)C2c1cc2ccccc2nc1N1CCOCC1` (centres undefined): the MIC amounted to 500 µg/mL (≈ 1160 µM) in test [1]; 250 µg/mL (≈ 581 µM) in test [2]; 200 µg/mL (≈ 465 µM) in test [3]; 200 µg/mL (≈ 465 µM) in test [4]; 250 µg/mL (≈ 581 µM) in test [5]; 250 µg/mL (≈ 581 µM) in test [6]. Moreover, the MIC in test [7] (MTCC 3008, 48 h) came out at 1000 µg/mL (≈ 2320 µM); in test [8] (MTCC 227, 48 h), 500 µg/mL (≈ 1160 µM).
Regarding `COc1ccc2nc(N3CCOCC3)c(C3C(C#N)=C(N)OC4=C3C(=O)CC(C)(C)C4)cc2c1` (centres undefined), the MIC is 100 µg/mL (≈ 217 µM) in test [1]; 500 µg/mL (≈ 1090 µM) in test [2]; 100 µg/mL (≈ 217 µM) in test [3]; 500 µg/mL (≈ 1090 µM) in test [4]; 500 µg/mL (≈ 1090 µM) in test [5]; 500 µg/mL (≈ 1090 µM) in test [6]. In addition, the MIC worked out at 100 µg/mL (≈ 217 µM) in test [7] (MTCC 3008, 48 h) and 1000 µg/mL (≈ 2170 µM) in test [8] (MTCC 227, 48 h).
`COC1=CC(=O)C[C@@H](C)[C@]12Oc1c(Cl)c(OC)cc(OC)c1C2=O` [GRISEOFULVIN]: the MIC in test [7] (MTCC 3008, 48 h) is 100 µg/mL (≈ 283 µM); in test [8] (MTCC 227, 48 h) it was 500 µg/mL (≈ 1420 µM).
On to `O=C(O)c1cn(C2CC2)c2cc(N3CCNCC3)c(F)cc2c1=O` [CIPROFLOXACIN], for which the MIC in test [1] was determined as 50 µg/mL (≈ 151 µM); in test [4], 25 µg/mL (≈ 75.4 µM); in test [5], 25 µg/mL (≈ 75.4 µM); in test [6], 25 µg/mL (≈ 75.4 µM).
Take `Cc1ccc2nc(N3CCOCC3)c(C3C(C#N)=C(N)OC4=C3C(=O)CC(C)(C)C4)cc2c1` (centres undefined): the MIC in test [1] was determined as 25 µg/mL (≈ 56.2 µM); in test [2] it was 500 µg/mL (≈ 1120 µM); in test [3] it was 200 µg/mL (≈ 450 µM); in test [4] it was 250 µg/mL (≈ 562 µM); in test [5] it was 250 µg/mL (≈ 562 µM); in test [6] it was 200 µg/mL (≈ 450 µM). In addition, the MIC in test [7] (MTCC 3008, 48 h) was found to be 1000 µg/mL (≈ 2250 µM); in test [8] (MTCC 227, 48 h) it was 250 µg/mL (≈ 562 µM).
In the case of `N#CC1=C(N)Oc2c(c(=O)oc3ccccc23)C1c1cc2ccccc2nc1N1CCOCC1` (centres undefined), the MIC in test [1] was found to be 250 µg/mL (≈ 553 µM); in test [2], 200 µg/mL (≈ 442 µM); in test [3] it was 250 µg/mL (≈ 553 µM); in test [4] it was 100 µg/mL (≈ 221 µM); in test [5], 250 µg/mL (≈ 553 µM); in test [6] it was 200 µg/mL (≈ 442 µM). For the same compound, the MIC in test [7] (MTCC 3008, 48 h) was determined as 500 µg/mL (≈ 1110 µM); in test [8] (MTCC 227, 48 h), 500 µg/mL (≈ 1110 µM).
With `Cc1n[nH]c2c1C(c1cc3ccccc3nc1N1CCOCC1)C(C#N)=C(N)O2` (centres undefined), the MIC in test [1] was found to be 250 µg/mL (≈ 644 µM); in test [2] it was 100 µg/mL (≈ 257 µM); in test [3], 250 µg/mL (≈ 644 µM); in test [4], 100 µg/mL (≈ 257 µM); in test [5], 200 µg/mL (≈ 515 µM); in test [6], 62.5 µg/mL (≈ 161 µM). Also, the MIC turned out to be 1000 µg/mL (≈ 2570 µM) in test [7] (MTCC 3008, 48 h) and 1000 µg/mL (≈ 2570 µM) in test [8] (MTCC 227, 48 h).
As to `N#CC1=C(N)Oc2cc(O)ccc2C1c1cc2ccccc2nc1N1CCOCC1` (centres undefined), the MIC in test [1] was 250 µg/mL (≈ 624 µM); in test [2], 250 µg/mL (≈ 624 µM); in test [3], 250 µg/mL (≈ 624 µM); in test [4] it was 200 µg/mL (≈ 499 µM); in test [5], 250 µg/mL (≈ 624 µM); in test [6] it was 100 µg/mL (≈ 250 µM). For the same compound, the MIC in test [7] (MTCC 3008, 48 h) is over 1000 µg/mL; in test [8] (MTCC 227, 48 h), 1000 µg/mL (≈ 2500 µM).
Regarding `COc1ccc2nc(N3CCOCC3)c(C3C(C#N)=C(N)OC4=C3C(=O)c3ccccc3C4=O)cc2c1` (centres undefined), the MIC in test [1] came to 200 µg/mL (≈ 404 µM); in test [2], 100 µg/mL (≈ 202 µM); in test [3], 200 µg/mL (≈ 404 µM); in test [4], 200 µg/mL (≈ 404 µM); in test [5], 250 µg/mL (≈ 506 µM); in test [6], 100 µg/mL (≈ 202 µM). Also, the MIC in test [7] (MTCC 3008, 48 h) is 1000 µg/mL (≈ 2020 µM); in test [8] (MTCC 227, 48 h), over 1000 µg/mL.
Take `Cc1ccc2nc(N3CCOCC3)c(C3C(C#N)=C(N)OC4=C3C(=O)c3ccccc3C4=O)cc2c1` (centres undefined): the MIC in test [1] was determined as 100 µg/mL (≈ 209 µM); in test [2], 250 µg/mL (≈ 522 µM); in test [3], 200 µg/mL (≈ 418 µM); in test [4], 100 µg/mL (≈ 209 µM); in test [5], 250 µg/mL (≈ 522 µM); in test [6] it was 250 µg/mL (≈ 522 µM). Further, the MIC is over 1000 µg/mL in test [7] (MTCC 3008, 48 h) and over 1000 µg/mL in test [8] (MTCC 227, 48 h).
